molecular target: human TNIK (N-terminal segment, TNIK_N, residues 1-314) (Homo sapiens (Human), UniProt Q9UKE5); assay: TNIK kinase assay (mobility shift); format: biochemical; settings: TNIK_N kinase activity, 25 μM ATP, 1 h at room temperature
Description: Preparation of Recombinant Human TNIK (N-Terminal Segment):
A cDNA encoding the N-terminal segment (TNIK_N, residues 1-314) containing the kinase domain of human TNIK (NM_015028.1) was amplified from cDNA mixture synthesized from human tissue (Biochain) by PCR using the following primers.
The cDNA was subcloned into baculovirus transfer vector pFastBac_GSTb that includes protease cleavage site and glutathione S-transferase purification tag (GST-tag). The plasmid was purified and the insertion of the pFastBac_GSTb-TNIK_N was confirmed by DNA sequencing. Then E. coli DH10Bac competent cells were transformed with the plasmid to prepare the recombinant bacmid according to the instructions for the Bac-to-Bac™ baculovirus expression systems (Invitrogen). The Sf9 cells were transfected with the recombinant bacmid containing pFastBac_GSTb-TNIK_N using Cellfectin Reagent (Invitrogen) in SF-9001I serum free media (Invitrogen). The viral supernatant was collected from the medium 72 h after transfection. The virus was amplified three times by infecting actively growing Sf9 or Sf21 cells in Grace's insect media (Invitrogen) supplemented with 10% FCS and an antibiotic-antimycotic reagent (Invitrogen) for 72 h at 27° C. in T-flask or roller bottles. The titer of amplified TNIK_N virus was estimated at 2.36×10^8 pfu/ml by using BacPAK™ Baculovirus Rapid Titer kit (Clontech).
Log-phase Sf21 cells (2×10^6 cells/ml) in the Grace's insect media were infected with the recombinant baculovirus at MOI of 3.0 and incubated in roller bottles (250 ml media per bottle) for 72 h at 27° C., after which, the cells were collected by centrifugation, and the cell pellet washed with cold PBS and kept at −80° C. until purification. The following purification procedures were carried out at 4° C. The frozen cells were thawed on ice and lysed in lysis buffer (50 mM Tris-HCl, pH 7.5, 150 mM NaCl, 1% Nonidet P-40, 5 mM DTT, 0.5 mM EDTA, 0.5 mM EGTA) supplemented with 1 mM phenylmethansulfonylfluoride, 2 μg/ml leupeptin, 2 μg/ml aprotinin, 1 mM NaF, 100 μM sodium orthovanadate, and 1 μM cantharidin by sonication. The suspended lysate was cleared by centrifugation at 9000g for 20 min and the supernatant was incubated for 1 h with glutathione Sepharose beads (GE Healthcare). The beads were suspended in buffer-H (50 mM Tris-HCl, pH 7.5, 1 M NaCl, 1 mM DTT, 0.5 mM EDTA, 0.5 mM EGTA and 0.05% Brij35) and washed with buffer-H followed by buffer-L (50 mM Tris-HCl, pH 7.5, 150 mM NaCl, 1 mM DTT, 0.5 mM EDTA, 0.5 mM EGTA, 0.05% Brij35) in an Econo-pack column (BIO-RAD). The bound TNIK_N was eluted with elution buffer (50 mM Tris-HCl, pH 8.0, 150 mM NaCl, 1 mM DTT, 10% glycerol, 0.5 mM EDTA, 0.5 mM EGTA and 5 mM reduced glutathione). The eluted fractions were collected and determined the protein concentration by Bradford reagent (BIO-RAD). The TNIKN fractions were pooled and desalted using 10DG column (BIORAD) equilibrated with the storage buffer (50 mM Tris-HCl, pH 7.5, 150 mM NaCl, 1 mM DTT, 10% glycerol, 0.05% Brij35). The purified TNIKN was characterized by electrophoresis using 4-20% polyacrylamide gels and matrix-assisted laser desorption/ionization reflection time-of-flight (MALDI-TOF) mass spectrometry on a Voyager-DE RP MALDI/TOF (Applied Biosystems). TNIK_N was confirmed by the molecular weight and. MASCOT Peptide Mass Fingerprint.
The kinase assays were conducted in a 20 μl volume using 384-well plates (Greiner). The reaction mixture consists of compound or vehicle (1% DMSO), 0.08 ng/μl TNIK_N, 1 μM FITC-labeled substrate peptides, including E-aminocaproic acid and 7 amino acids (described as SEQ ID NO.3 in “Kinase assay of TEST EXAMPLE 1” of WO 2010/064111(P.31)), 20 mM Hepes, pH 7.5, 0.01% Triton X-100, 5 mM MgCl2, 25 μM ATP and 2 mM DTT. As blank, TNIK N was excluded from the reaction mixture of vehicle (1% DMSO). […]

Sequence of human TNIK (N-terminal segment, TNIK_N, residues 1-314) (Q9UKE5 1-314): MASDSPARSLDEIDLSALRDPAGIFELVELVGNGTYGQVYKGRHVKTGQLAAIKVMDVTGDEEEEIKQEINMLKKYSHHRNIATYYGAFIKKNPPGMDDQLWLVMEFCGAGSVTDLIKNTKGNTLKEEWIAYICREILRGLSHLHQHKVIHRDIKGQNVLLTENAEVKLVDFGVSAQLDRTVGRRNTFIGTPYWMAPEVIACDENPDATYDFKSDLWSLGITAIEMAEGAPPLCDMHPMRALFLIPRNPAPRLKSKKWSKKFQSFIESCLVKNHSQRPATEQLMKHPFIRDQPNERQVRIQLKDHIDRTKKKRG

SMILES | IC50
NC(=O)c1nc(Nc2ccc3ccccc3c2)sc1NC(=O)c1ccc(CCO)cc1 [Example 116, 5-[4-(2-hydroxyethyl)benzamido]-2-(naphthalen-2-ylamino)thiazole-4-carboxamide] | 5.8 nM
NC(=O)c1nc(Nc2ccc3ccccc3c2)sc1NC(=O)c1ccc(CN2CC[C@H](N)C2)cc1 [Example 220, (S)-5-{4-[(3-aminopyrrolidin-1-yl)methyl]benz-amido}-2-(naphthalen-2-ylamino)thiazole-4-carbox-amide] | 3 nM
Cc1nccn1Cc1ccc(C(=O)Nc2sc(Nc3ccc4ccccc4c3)nc2C(N)=O)cc1 [Example 237, 5-{4-[(2-methyl-1H-imidazol-1-yl)methyl]benz-amido}-2-(naphthalen-2-ylamino)thiazole-4-carbox-amide] | 2.3 nM
Cc1ccc(C(=O)Nc2sc(Nc3ccc4ccccc4c3)nc2C(N)=O)cc1N [Example 9, 5-(3-amino-4-methylbenzamido)-2-(naphthalen-2-ylamino)thiazole-4-carboxamide] | 27.2 nM
NC(=O)c1nc(Nc2ccc3ccc(F)cc3c2)sc1NC(=O)CCCCCN1CCOCC1 [Example 130, 2-[(7-fluoronaphthalen-2-yl)amino]-5-(6-morpho-linohexanamido)thiazole-4-carboxamide] | 19.5 nM
COc1ccc(C(=O)Nc2sc(Nc3ccc4ncccc4c3)nc2C(N)=O)cc1 [Example 4, 5-(4-methoxybenzamido)-2-(quinolin-6-ylamino) thiazole-4-carboxamide] | 21.5 nM
NC(=O)c1nc(Nc2ccc3ccccc3c2)sc1NC(=O)C#CCO [Example 218, 5-(4-hydroxybut-2-ynamido)-2-(naphthalen-2-yl-amino)thiazole-4-carboxamide] | 4.5 nM
NC(=O)c1nc(Nc2ccc3ccccc3c2)sc1NC(=O)C#CCCCn1ccnc1 [Example 234, 5-[6-(1H-imidazol-1-yl)hex-2-ynamido]-2-(naph-thalen-2-ylamino)thiazole-4-carboxamide] | 9.7 nM

Second part, the compound after the results:

IC50 | SMILES
3.1 nM | Cc1cn(Cc2ccc(C(=O)Nc3sc(Nc4ccc5ccccc5c4)nc3C(N)=O)cc2)cn1 [Example 238, 5-{4-[(4-methyl-1H-imidazol-1-yl)methyl]benz-amido}-2-(naphthalen-2-ylamino)thiazole-4-carbox-amide]
16 nM | CN1CCN(C/C=C/C(=O)Nc2sc(Nc3ccc4ccccc4c3)nc2C(N)=O)CC1 [Example 174, (E)-5-(4-(4-methylpiperazin-1-yl)but-2-enamido)-2-(naphthalen-2-ylamino)thiazole-4-carboxamide]
15.2 nM | COc1ccc2cc(Nc3nc(C(N)=O)c(NC(=O)C=C(C)C)s3)ccc2c1 [Example 137, 2-[(6-methoxynaphthalen-2-yl)amino]-5-(3-meth-ylbut-2-enamido)thiazole-4-carboxamide]
3.2 nM | CN1CCCN(Cc2ccc(C(=O)Nc3sc(Nc4ccc5ccccc5c4)nc3C(N)=O)cc2)CC1 [Example 190, 5-{4-[(4-methyl-1,4-diazepan-1-yl)methyl]benz-amido}-2-(naphthalen-2-ylamino)thiazole-4-carbox-amide]
3.7 nM | NC(=O)c1nc(Nc2ccc3ccccc3c2)sc1NC(=O)c1ccc(CNCCO)cc1 [Example 163, 5-(4-{[(2-hydroxyethyl)amino]methyl}benzamido)-2-(naphthalen-2-ylamino)thiazole-4-carboxamide]
7.2 nM | NC(=O)c1nc(Nc2ccc3ccccc3c2)sc1NC(=O)c1ccc(N2CCN(CCO)CC2)cc1 [Example 187, 5-{4-[4-(2-hydroxyethyl)piperazin-1-yl]benzamido}-2-(naphthalen-2-ylamino)thiazole-4-carbox-amide]
7.2 nM | CC(C)=CC(=O)Nc1sc(Nc2ccc3ccc(F)cc3c2)nc1C(N)=O [Example 128, 2-[(7-fluoronaphthalen-2-yl)amino]-5-(3-methyl-but-2-enamido)thiazole-4-carboxamide]
